Experiment: gradient 5% acetonitrile 3 min, to 50% in 2 min, to 85% in 15 min, held 3 min, 100 µL/min
Details: column: Zorbax Extend-C18 2.1 x 50 mm; eluents: water / acetonitrile, 0.1% formic acid
Procedure, shortened: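 The system's dead and dwell volumes were 40 μL and 900 μL, with a Zorbax Extend-C18 column (2.1 × 50 mm, 1.8 μm) run at 100 μL/min in water and acetonitrile containing 0.1% formic acid each. Pure standards were analyzed in mixtures of ~100 molecules by HPLC–quadrupole time-of-flight mass spectrometry in positive and negative ionization mode. Retention time was assigned from computationally picked, manually inspected adduct peaks.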

| SMILES | RP-LC retention time [s] |
| --- | --- |
| CC(=O)Nc1ccc(S(=O)(=O)N2CCc3c(c(-c4nnc(-c5ccccc5)o4)nn3C)C2)cc1 | 775 |
| O=C(c1cn(-c2cc(N3CCSCC3)ncn2)cn1)N1CC=C(c2ccccc2)CC1 | 992 |
| CCc1nc2cccnc2n1-c1ccc(C(=O)NC)cc1 | 659 |
| CCN1c2ccccc2C(=O)NC12CCN(C(=O)Cc1ccc(C)cc1)CC2 | 823 |
| COC(=O)C1=CN(C2CC2)c2cc(N3CCN(C4CCCCC4)CC3)c(F)cc2S1(=O)=O | 643 |
| Cc1ccc(C(=O)N2C[C@H](c3nc(-c4cccnc4)no3)[C@@H](C)C2)c(C)c1 | 853 |
| O=S(=O)(c1cc(-c2nnc(C3CCCC3)o2)co1)N1CCCCCC1 | 1050 |
| O=C(NCc1ccccn1)C1CC(=O)N(c2n[nH]c3cc(Br)ccc23)C1 (configuration not stated) | 600 |
| Cc1ccc(-c2nnc(Cc3nc(-c4cccc(C(F)(F)F)c4)no3)o2)cc1F | 1180 |
| COc1cc2c(cc1OC)C1C(C(=O)NCc3ccc4c(c3)OCO4)c3ccccc3C(=O)N1CC2 (configuration not stated) | 753 |
| O=C(c1ccc(Cl)cc1Cl)N1CCN(c2cc(-c3cccs3)[nH]n2)CC1 | 888 |
| O=C1CCC(C(=O)N2CCC(c3c[nH]c4ccccc34)(c3c[nH]c4ccccc34)CC2)N1 (configuration not stated) | 711 |
| CCc1ccc(-c2cc3c(=O)n(Cc4noc(CN5CCCCC5C)n4)ccn3n2)cc1 (configuration not stated) | 761 |
| COc1ccc(N2CCN(C(=O)Cn3ccc4c(SCc5ccc(F)cc5)nccc43)CC2)cc1 | 759 |
| O=C(Cn1c(=O)oc2ccccc21)NCc1n[nH]c(=O)c2ccccc12 | 595 |
| Cc1cccc(-c2noc(Cn3c(=O)n(Cc4ccccc4)c(=O)c4sccc43)n2)c1 | 1060 |
| CC(=O)N1CCc2cc(N3CC(C(=O)Nc4ccc(C)cc4C)CC3=O)ccc21 (configuration not stated) | 786 |
| O=S(=O)(c1cccc2nsnc12)N1CCCC(Cc2noc(-c3cnccn3)n2)C1 (configuration not stated) | 858 |
| Cn1cc(CN2CCC(C(=O)NC3CCCC3)CC2)c2cc(Cl)ccc21 | 692 |
| CC(C)c1ccc(CNc2nc3ccncc3n(Cc3ccccc3)c2=O)cc1 | 842 |
| Brc1cccc(-c2nc3cnccn3c2NC2CCCCC2)c1 | 1130 |
| Cc1cc(C)cc(NC(=O)Cn2nc(N3CCCC3)c3ccccc3c2=O)c1 | 1010 |

| SMILES | RP-LC retention time [s] |
| --- | --- |
| Cc1cc(C(=O)N2CC(C(=O)Nc3cccc(-c4csc(C)n4)c3)C2)no1 | 721 |
| CN1CCN(c2ccc(CNC(=O)C3CCCN(c4nccnc4Oc4ccccc4)C3)cc2)CC1 (configuration not stated) | 664 |
| CS(=O)(=O)N1CCC(OC2CCN(C(=O)Nc3ccccc3Cl)CC2)CC1 | 785 |
| O=C(Nc1ccccc1)N1CCC(N(C(=O)C2CC2)C2CCOCC2)CC1 | 697 |
| Cc1nc2c(SCC(=O)Nc3ccc4c(c3)OCO4)nnc(-c3ccccc3)c2s1 | 847 |
| Cc1ccc(C)c(NC(=O)Cn2c(C)cc(-c3nnc(C)o3)c2C)c1 | 796 |
| CN(C)c1nc2cc(C(=O)NCc3ccncc3)sc2n1-c1ccccc1 | 1130 |
| Cc1cc(C)cc(Nc2c(-c3ccc(N(C)C)cc3)nc3cnccn23)c1 | 921 |
| COc1ccc2c(c1O)-c1cccc3c1[C@@H](C2)N(C)CC3 | 643 |
| COC(=O)c1ccc(Cl)cc1NC(=O)COc1nc(C)nc2ccccc12 | 920 |
| COc1ccc(-c2noc(Cn3nc(-c4ccccc4)ccc3=O)n2)cc1 | 953 |
| CN(Cc1ccccc1)S(=O)(=O)c1cc2c3c(c1)CCC(=O)N3CCC2 | 926 |
| c1ccc(-n2ccnc2SCc2nc(-c3ccc4c(c3)OCO4)no2)cc1 | 790 |
| COc1cc(Nc2c(C#N)cnc3cc(OCCCN4CCN(C)CC4)c(OC)cc23)c(Cl)cc1Cl | 675 |
| Cn1cc(-c2ccc3ncc(Cc4ccc5ncccc5c4)n3n2)cn1 | 582 |
| Cc1ccc(Sc2nccnc2N2CCC(C(=O)N3CCN(c4ccc(F)cc4)CC3)CC2)cc1 | 1200 |
| CC(C)CCN1C(=O)C2(NCCc3c2[nH]c2ccccc32)c2cc(Br)ccc21 (configuration not stated) | 835 |
| COCCCNC(=O)C1CCN(c2cncnc2N2CCOCC2)CC1 | 550 |
| Cc1cc(C)c2c(N3CCCC3)nc(C(=O)N(C)Cc3ccccc3)nc2n1 | 654 |
| Cc1ccc(NC(=O)N2CCC(C(C)C(=O)Nc3ccc(C)c(C)c3)CC2)cc1 (configuration not stated) | 932 |
| CCc1nc2cc(N3CCC(C(=O)NC(C)c4ccccc4)CC3)cnc2nc1CC (configuration not stated) | 837 |
| COc1cc(-c2nc3c(C)cccn3c2Nc2ccc(C)cc2)ccc1O | 684 |

| SMILES | RP-LC retention time [s] |
| --- | --- |
| C/C(=N\NC(N)=O)c1ccc(Cl)c(-n2cccc2)c1 | 855 |
| O=S(=O)(Nc1ccc(Cl)cn1)c1cc(-c2noc(C3CCCC3)n2)cs1 | 1070 |
| COC(=O)COC(=O)c1cn(-c2ccc(C)cc2)c(=O)c2ccccc12 | 986 |
| COC(=O)c1nnn(-c2cc(C)ccc2OC)c1C(=O)OC | 862 |
| CC(C)n1c(CN2CCOCC2)nc2ccccc21 | 556 |
| Cc1nnc2ccc(-c3noc(-c4ccc(Br)cc4)n3)cn12 | 1030 |
| Cc1ccc(NC(=O)C2CCN(C(=O)c3ncn4c3COC(c3ccc(F)cc3)C4)CC2)cc1C (configuration not stated) | 848 |
| COc1cccc(-c2noc(Cc3nnc(-c4cc(F)cc(F)c4)o3)n2)c1OC | 968 |
| C[C@@H](O)[C@H](NC(=O)c1ccc(C#Cc2ccc(CN3CCOCC3)cc2)cc1)C(=O)NO | 629 |
| CCNc1cc(N2CCCC(CCC(=O)NC3CCCC3)C2)ncn1 (configuration not stated) | 646 |
| O=C(Nc1ccc2c(c1)CCN(Cc1ncn[nH]1)C2)c1ccccc1-c1ccc(C(F)(F)F)cc1 | 755 |
| Cc1cc(C(=O)N2CCC3(CC2)NCc2ccccc2-n2ccnc23)nn1C | 576 |
| COc1ccc(Cn2nc3c(S(=O)(=O)N4CCN(c5ccc(F)cc5)CC4)cccn3c2=O)cc1 | 905 |
| CCc1nc(-c2cc(S(=O)(=O)N3CCC(C(=O)NC4CC4)CC3)c(C)s2)no1 | 744 |
| CCN(CC)CCNC(=O)C1c2ccccc2C(=O)N2CCc3cc(OC)c(OC)cc3C12 (configuration not stated) | 599 |
| Cc1cc2c(=O)n(CC(=O)Nc3ccc(Cl)cc3F)ccc2s1 | 871 |
| CC(C)n1cnc(S(=O)(=O)N2CCC(C(=O)N3CCN(c4ccccc4)CC3)CC2)c1 | 754 |
| Cc1cc2c(=O)n(CC(=O)Nc3ccc(F)cc3)c3cccnc3n2n1 | 689 |
| COc1ccc(C(=O)N2CCN3CCS(=O)(=O)N(C4CC4)C(=O)C3C2)c(OC)c1 (configuration not stated) | 711 |
| COc1ccc(OCC(=O)N2CCN(c3ccc(-c4nc(C)c(C)s4)cn3)CC2)cc1 | 855 |
| CCN1C(=O)CCc2cc(NS(=O)(=O)c3ccc(C4CCCCC4)cc3)ccc21 | 1060 |
| CCn1cc(-c2nc(C(=O)Nc3ccc(F)cc3F)cs2)c2cccnc21 | 1220 |

| SMILES | RP-LC retention time [s] |
| --- | --- |
| Cc1nnc(-c2ccc(S(=O)(=O)N3CCC(C)CC3)o2)o1 | 815 |
| O=C(Cn1nc2c(Oc3ccc(Cl)cc3)nccn2c1=O)NC1CCCCC1 | 881 |
| CC(C)(C)OC(=O)N1CCN(c2ncnc(N)c2[N+](=O)[O-])CC1 | 691 |
| O=C(N[C@@H]1CN(Cc2ccc3c(c2)CCO3)C[C@H]1CO)C1CCC1 | 591 |
| CCc1nc(-c2csc(S(=O)(=O)N3CCC(C(=O)Nc4cc(C)ccn4)CC3)c2)no1 | 749 |
| O=C(NCc1ccc2c(c1)OCO2)c1nnc(-c2ccc(S(=O)(=O)N3CCOCC3)cc2)o1 | 804 |
| CCc1nccn1Cc1nc(-c2ccccc2F)no1 | 603 |
| Cc1ccc(Sc2nccnc2N2CCCC(C(=O)NC3CCCCCC3)C2)cc1 (configuration not stated) | 1250 |
| O=C(Nc1ccc(Cl)cc1F)C1CCCN(C(=O)c2cc(-c3ccccn3)n[nH]2)C1 (configuration not stated) | 740 |
| Cc1ccc(-c2ccc(N3CCN(c4ccccn4)CC3)nn2)cc1S(=O)(=O)N1CCOCC1 | 623 |
| CCCn1ncc(N2CCC(C(=O)N3CCCCC3)CC2)cc1=O | 559 |
| CCc1ccc(C(=O)N2CCCC(COc3ccc(C(=O)NC(C)C)cc3)C2)cc1 (configuration not stated) | 944 |
| CC(C)n1nc(-c2nc(-c3cccc(Cl)c3)no2)ccc1=O | 1150 |
| COc1ccc2[nH]cc(C(=O)O)c(=O)c2c1 | 605 |
| O=S(=O)(NC1CCCCC1n1cc(-c2ccccc2)nn1)c1ccccc1 (configuration not stated) | 789 |
| Cc1ccc(OCC(=O)N(Cc2ccc(Br)o2)C2CCS(=O)(=O)C2)cc1C (configuration not stated) | 996 |
| CC(=O)Oc1ccc(Nc2cc(C)nc3nc(-c4cccnc4)nn23)cc1 | 688 |
| Cc1ncsc1C1N(C2CCN(C(=O)Cn3ccnc3)CC2)C(=O)C12CCCC2 (configuration not stated) | 594 |
| CN(C)CC1(O)CCC2(CCN(C(=O)C3CCCC3)CC2)CC1 | 591 |
| CC(C)CCN1N=C(C(=O)N2CCOCC2)S(=O)(=O)c2ccc(Cl)cc21 | 957 |
| CC(C)N1C(=O)c2cccnc2Sc2cc(C(=O)NC3CC3)ccc21 | 702 |

Source: the METLIN SMRT retention time set (Domingo-Almenara et al. 2019)
